Data on six compounds can be found in article PMC6364417, “Kinase inhibitor library screening identifies synergistic drug combinations effective in sensitive and resistant melanoma cells” (Journal of Experimental & Clinical Cancer Research : CR, 2019).

Assay in all cases: Kinase inhibitor library screening, PrestoBlue cell viability, 1 or 10 μM, 72 h
For one data set, the system named is 501Mel cells (parental). The settings on record: 501Mel Parental. In a few lines: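 Two concentrations of every kinase inhibitor were tested on each melanoma line and its resistant counterparts, and cell survival was quantified by PrestoBlue against untreated wells.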
Data set [1] concerns 501Mel-GP cells (Dabrafenib-resistant). The settings on record: 501Mel GP.
The test system of data set [2] is 501Mel-XP cells (Vemurafenib-resistant). As to conditions: 501Mel XP.
In another data set the test system is A375 cells (parental). The settings on record: A375 Parental.
Data set [3] has as its system A375-GP cells (Dabrafenib-resistant). As to conditions: A375 GP.
Data set [4] has as its system A375-XP cells (Vemurafenib-resistant). As to conditions: A375 XP.
Another data set deals with IGR37 cells (parental). The settings on record: IGR37 Parental.
In data set [5] the test system is IGR37-GP cells (Dabrafenib-resistant). As to conditions: IGR37 GP.
The test system of data set [6] is IGR37-XP cells (Vemurafenib-resistant). The settings on record: IGR37 XP.

In the case of `COc1cc(Nc2ncc(F)c(Nc3ccc4c(n3)N(COP(=O)(O)O)C(=O)C(C)(C)O4)n2)cc(OC)c1OC` [R788 (Fostamatinib)], the “cell viability (kinase inhibitor library screening)” value in the data set with 501Mel cells (parental) (1μΜ, in %) is listed as 98.5; in the data set with 501Mel cells (parental) (10μΜ, in %), 76.6; in data set [1] (1μΜ, in %) it was 90.2; in data set [1] (10μΜ, in %) it was 61.2; in data set [2] (1μΜ, in %) it was 82.4; in data set [2] (10μΜ, in %) it was 25.1. In addition, the “cell viability (kinase inhibitor library screening)” value in the data set on A375 cells (parental) (1μΜ, in %) is 95.5; with A375 cells (parental) (10μΜ, in %), 47.5; in data set [3] (1μΜ, in %), 89.5; in data set [3] (10μΜ, in %) it was 49.0; in [4] (1μΜ, in %), 93.7; in data set [4] (10μΜ, in %), 63.9. Moreover, the “cell viability (kinase inhibitor library screening)” value in the data set on IGR37 cells (parental) (1μΜ, in %) is on record as 99.8; in the data set on IGR37 cells (parental) (10μΜ, in %), 77.8; in data set [5] (1μΜ, in %), 87.5; in data set [5] (10μΜ, in %), 21.3; in data set [6] (1μΜ, in %), 89.9; in [6] (10μΜ, in %), 12.1.

Regarding `O=C1NC(=O)C(c2ccccc2[N+](=O)[O-])=C1Nc1ccc(O)c(Cl)c1` [SB 415286], the “cell viability, 501Mel Parental, 1μΜ” value in the data set on 501Mel cells (parental) (1μΜ, 72 h, in %) came out at 94.3. Further, the “cell viability, 501Mel Parental, 10μΜ” value in the data set with 501Mel cells (parental) (10μΜ, 72 h, in %) came out at 76.0. Besides, in data set [1] (1μΜ, 72 h, in %), the “cell viability, 501Mel GP, 1μΜ” value was 100.2. In addition, the “cell viability, 501Mel GP, 10μΜ” value in data set [1] (10μΜ, 72 h, in %) came to 76.0. The “cell viability, 501Mel XP, 1μΜ” value in data set [2] (1μΜ, 72 h, in %) was 92.5. The “cell viability, 501Mel XP, 10μΜ” value in data set [2] (10μΜ, 72 h, in %) is 76.3. Moreover, the “cell viability, A375 Parental, 1μΜ” value in the data set with A375 cells (parental) (1μΜ, 72 h, in %) is 99.8. In the data set with A375 cells (parental) (10μΜ, 72 h, in %), the “cell viability, A375 Parental, 10μΜ” value came to 78.1. For the same compound, the “cell viability, A375 GP, 1μΜ” value in data set [3] (1μΜ, 72 h, in %) is recorded as 95.9. Further, in data set [3] (10μΜ, 72 h, in %), the “cell viability, A375 GP, 10μΜ” value is 86.4. In addition, the “cell viability, A375 XP, 1μΜ” value in [4] (1μΜ, 72 h, in %) is given as 100.0. The “cell viability, A375 XP, 10μΜ” value in [4] (10μΜ, 72 h, in %) amounted to 92.8. In addition, the “cell viability, IGR37 Parental, 1μΜ” value in the data set with IGR37 cells (parental) (1μΜ, 72 h, in %) is 102.6. Further, in [5] (10μΜ, 72 h), the cell viability, IGR37 GP, 10μΜ is 93.7%. For the same compound, the “cell viability, IGR37 GP, 1μΜ” value in data set [5] (1μΜ, 72 h, in %) worked out at 94.9. The same compound showed a cell viability, IGR37 XP, 10μΜ in data set [6] (10μΜ, 72 h) of 85.4%. In addition, the “cell viability, IGR37 XP, 1μΜ” value in [6] (1μΜ, 72 h, in %) was found to be 98.9.

On to `COC(=O)Nc1ccc(-c2nc(N3CCOCC3)c3cnn(C4CCN(C(=O)OC)CC4)c3n2)cc1` [WYE-354], for which the “Cell viability in kinase inhibitor library screening, 501Mel Parental, 1μΜ” value with 501Mel cells (parental) (1μΜ, 72 h, in %) is reported as 85.1. In the data set on 501Mel cells (parental) (10μΜ, 72 h, in %), the “Cell viability in kinase inhibitor library screening, 501Mel Parental, 10μΜ” value came to 21.3. For the same compound, in [1] (1μΜ, 72 h, in %), the “Cell viability in kinase inhibitor library screening, 501Mel GP, 1μΜ” value came out at 76.5. Also, the “Cell viability in kinase inhibitor library screening, 501Mel GP, 10μΜ” value in data set [1] (10μΜ, 72 h, in %) is listed as 16.5. Moreover, the “Cell viability in kinase inhibitor library screening, 501Mel XP, 1μΜ” value in data set [2] (1μΜ, 72 h, in %) is given as 63.3. Moreover, the “Cell viability in kinase inhibitor library screening, 501Mel XP, 10μΜ” value in [2] (10μΜ, 72 h, in %) stood at 8.7. The “Cell viability in kinase inhibitor library screening, A375 Parental, 10μΜ” value in the data set with A375 cells (parental) (10μΜ, 72 h) was 24.6. The “Cell viability in kinase inhibitor library screening, A375 Parental, 1μΜ” value with A375 cells (parental) (1μΜ, 72 h) is recorded as 84.7. For the same compound, the “Cell viability in kinase inhibitor library screening, A375 GP, 1μΜ” value in [3] (1μΜ, 72 h) was found to be 80.7. For the same compound, the “Cell viability in kinase inhibitor library screening, A375 GP, 10μΜ” value in [3] (10μΜ, 72 h) is recorded as 21.5. For the same compound, in data set [4] (1μΜ, 72 h), the “Cell viability in kinase inhibitor library screening, A375 XP, 1μΜ” value was found to be 76.7. In data set [4] (10μΜ, 72 h), the “Cell viability in kinase inhibitor library screening, A375 XP, 10μΜ” value was 19.6. Also, the “Cell viability in kinase inhibitor library screening, IGR37 Parental, 1μΜ” value with IGR37 cells (parental) (1μΜ, 72 h, in %) turned out to be 82.1. The “Cell viability in kinase inhibitor library screening, IGR37 Parental, 10μΜ” value in the data set on IGR37 cells (parental) (10μΜ, 72 h, in %) came to 28.9. The same compound registered a Cell viability in kinase inhibitor library screening, IGR37 GP, 10μΜ in [5] (10μΜ, 72 h) of 31.6%. Besides, the “Cell viability in kinase inhibitor library screening, IGR37 GP, 1μΜ” value in [5] (1μΜ, 72 h, in %) stood at 85.9. Further, in data set [6] (10μΜ, 72 h), the Cell viability in kinase inhibitor library screening, IGR37 XP, 10μΜ was 10.6%. Moreover, the “Cell viability in kinase inhibitor library screening, IGR37 XP, 1μΜ” value in data set [6] (1μΜ, 72 h, in %) was 82.2.

On to `CNC(=O)c1cc(Oc2ccc(NC(=O)Nc3ccc(Cl)c(C(F)(F)F)c3)c(F)c2)ccn1` [Regorafenib (BAY 73-4506)], for which the “cell viability (kinase inhibitor library screening)” value turned out to be 93.5% in the data set with 501Mel cells (parental) (1μΜ, 72 h); 53.2% in the data set on 501Mel cells (parental) (10μΜ, 72 h); 96.7% in data set [1] (1μΜ, 72 h); 48.3% in data set [1] (10μΜ, 72 h); 93.6% in data set [2] (1μΜ, 72 h); 47.1% in [2] (10μΜ, 72 h). The “cell viability (kinase inhibitor library screening)” value in the data set on A375 cells (parental) (10μΜ, 72 h) came to 32.8%; in the data set with A375 cells (parental) (1μΜ, 72 h) it was 96.5%; in data set [3] (1μΜ, 72 h), 48.9%; in data set [3] (10μΜ, 72 h) it was 22.9%; in [4] (1μΜ, 72 h) it was 58.9%; in [4] (10μΜ, 72 h) it was 18.1%. Further, the “cell viability (kinase inhibitor library screening)” value with IGR37 cells (parental) (1μΜ, 72 h) stood at 94.8%; with IGR37 cells (parental) (10μΜ, 72 h), 42.7%; in [5] (1μΜ, 72 h), 89.9%; in data set [5] (10μΜ, 72 h), 47.7%; in [6] (1μΜ, 72 h), 88.9%; in data set [6] (10μΜ, 72 h), 14.8%.

Regarding `COc1ncc(-c2ccc3nccc(-c4ccnnc4)c3c2)cc1NS(=O)(=O)c1ccc(F)cc1F` [GSK2126458], the “Cell viability in kinase inhibitor library screening, 501Mel Parental, 1μΜ” value in the data set on 501Mel cells (parental) (1μΜ, 72 h, in %) was 3.1. Moreover, the “Cell viability in kinase inhibitor library screening, 501Mel Parental, 10μΜ” value in the data set on 501Mel cells (parental) (10μΜ, 72 h, in %) is on record as 0.9. In addition, in data set [1] (1μΜ, 72 h, in %), the “Cell viability in kinase inhibitor library screening, 501Mel GP, 1μΜ” value turned out to be 6.0. The “Cell viability in kinase inhibitor library screening, 501Mel GP, 10μΜ” value in data set [1] (10μΜ, 72 h, in %) was found to be 0.6. In addition, the “Cell viability in kinase inhibitor library screening, 501Mel XP, 1μΜ” value in data set [2] (1μΜ, 72 h, in %) is reported as 2.1. Besides, the “Cell viability in kinase inhibitor library screening, 501Mel XP, 10μΜ” value in data set [2] (10μΜ, 72 h, in %) came out at 0.8. Further, the “Cell viability in kinase inhibitor library screening, A375 Parental, 10μΜ” value in the data set on A375 cells (parental) (10μΜ, 72 h) is 3.2. In addition, in the data set on A375 cells (parental) (1μΜ, 72 h), the “Cell viability in kinase inhibitor library screening, A375 Parental, 1μΜ” value is on record as 15.7. Further, the “Cell viability in kinase inhibitor library screening, A375 GP, 1μΜ” value in data set [3] (1μΜ, 72 h) is given as 14.4. In [3] (10μΜ, 72 h), the “Cell viability in kinase inhibitor library screening, A375 GP, 10μΜ” value was 3.9. The “Cell viability in kinase inhibitor library screening, A375 XP, 1μΜ” value in [4] (1μΜ, 72 h) is reported as 13.7. The “Cell viability in kinase inhibitor library screening, A375 XP, 10μΜ” value in data set [4] (10μΜ, 72 h) came to 2.8. Besides, the “Cell viability in kinase inhibitor library screening, IGR37 Parental, 1μΜ” value in the data set with IGR37 cells (parental) (1μΜ, 72 h, in %) came out at 7.2. Also, the “Cell viability in kinase inhibitor library screening, IGR37 Parental, 10μΜ” value in the data set with IGR37 cells (parental) (10μΜ, 72 h, in %) was 0.469. Further, the Cell viability in kinase inhibitor library screening, IGR37 GP, 10μΜ in data set [5] (10μΜ, 72 h) worked out at 2.7%. Further, in data set [5] (1μΜ, 72 h, in %), the “Cell viability in kinase inhibitor library screening, IGR37 GP, 1μΜ” value turned out to be 9.1. In data set [6] (10μΜ, 72 h), the Cell viability in kinase inhibitor library screening, IGR37 XP, 10μΜ amounted to 1.1%. For the same compound, the “Cell viability in kinase inhibitor library screening, IGR37 XP, 1μΜ” value in data set [6] (1μΜ, 72 h, in %) came out at 7.6.

Take `CC(C)NC[C@@H](C(=O)N1CCN(c2ncnc3c2[C@H](C)C[C@H]3O)CC1)c1ccc(Cl)cc1` [GDC-0068]: the “cell viability (kinase inhibitor library screening)” value turned out to be 103.4% in the data set on 501Mel cells (parental) (1μΜ, 72 h); 81.6% in the data set with 501Mel cells (parental) (10μΜ, 72 h); 92.7% in [1] (1μΜ, 72 h); 56.7% in data set [1] (10μΜ, 72 h); 85.0% in data set [2] (1μΜ, 72 h); 36.9% in [2] (10μΜ, 72 h). The “cell viability (kinase inhibitor library screening)” value is 77.7% in the data set on A375 cells (parental) (10μΜ, 72 h); 104.3% in the data set with A375 cells (parental) (1μΜ, 72 h); 79.9% in data set [3] (10μΜ, 72 h); 85.5% in [4] (10μΜ, 72 h); 102.7% in the data set with IGR37 cells (parental) (1μΜ, 72 h); 90.8% in the data set on IGR37 cells (parental) (10μΜ, 72 h). In addition, the “cell viability (kinase inhibitor library screening)” value is listed as 97.0% in data set [5] (1μΜ, 72 h); 79.0% in data set [5] (10μΜ, 72 h); 95.3% in [6] (1μΜ, 72 h); 23.8% in data set [6] (10μΜ, 72 h).
